Patent EP2926812A1, “USE OF ARTEMETHER IN PREPARATION OF DRUG FOR TREATING LEUKEMIA” (Kunming Pharmaceutical Corp., priority 2012, dated 2014)

Assays:
[1] = tested on: K562 nude mice transplanted tumor; assay: Inhibition of growth of K562 nude mice transplanted tumor (pre-trial, experiment 1, experiment 2); type: in vivo, Balb/c nude mice; settings: for tumor sizes: n=6
From the text: 2.4 K562 cell: primary K562 cell is derived from bone marrow of a patient having leukemia, introduced by Blood Research Institute from abroad, stored and passaged in Pathologic Cell Bank; cultured in RPMI1640 medium (comprising 10% fetal bovine serum).
2.6 experimental animal: Balb/c nude mice, 4~5 weeks old, weight: 17~20 g, gender: half male and half female. Experimental Animal Institute of the Chinese Academy of Medical Sciences, certification number of experimental animals: SCXK (JING) 2005-0013.
3.1.1 Balb/c nude mice were subjected to 3.0Gy whole-body irradiation, after subcutaneous inoculation of primary K562 cells. About 4 weeks after inoculation, tumor masses in growing were removed and transplanted into […], and this process was repeated for 2~3 passages to establish high oncogenic K562 cell line.
(§1) 3.1.2 Nude mice were subjected to 3.0Gy whole-body irradiation, after subcutaneous inoculation of the K562 cells. One week after inoculation, nude mice with visible tumors were divided into the following 4 groups each consisting of 6 animals. The following dosages were administered for 3 continuous weeks, with 7 doses per week, a total of 21 doses.
Model control group: intraperitoneal injection of 20% aqueous solution of excipient at 0.2 ml/animal.
High dosage group: intraperitoneal injection of artemether at 150 ml/kg.
Middle dosage group: intraperitoneal injection of artemether at 100 ml/kg.
Low dosage group: intraperitoneal injection of artemether at 50 ml/kg.
(§2) Nude mice were subjected to a 3.0Gy whole-body irradiation, after subcutaneous inoculation of the K562 cells. One week after inoculation, nude mice with visible tumors were divided into the following 5 groups each consisting of 6 animals. The following dosages were administered for 3 continuous weeks, with 5 doses per week, a total of 15 doses.
Positive control group: intraperitoneal injection of cyclophosphamide at 10 ml/kg.
High dosage group: intraperitoneal injection of artemether at 100 ml/kg.
Middle dosage group: intraperitoneal injection of artemether at 60 ml/kg.
Low dosage group: intraperitoneal injection of artemether at 40 ml/kg.
(§3) Nude mice were subjected to a 3.0Gy whole-body irradiation, after subcutaneous inoculation of the K562 cells. One week after inoculation, nude mice with visible tumors were divided into the following 5 groups each consisting of 6 nude mice.
Model control group: intraperitoneal injection of 20% solution of excipient at 0.2ml/animal. The dosage was administered for 3 weeks, with 7 doses per week, a total of 21 doses.
Positive control group: intraperitoneal injection of cyclophosphamide at 10 ml/kg. The dosage was administered for 3 weeks, with 7 doses per week, a total of 21 doses.
(§4) High dosage group: intraperitoneal injection of artemether at 100 ml/kg. The dosage was administered for 3 weeks, with 5 doses per week, a total of 15 doses.
(§5) Middle dosage group: intraperitoneal injection of artemether at 60 ml/kg. The dosage was administered for 3 weeks, with 7 doses per week, a total of 21 doses.
(§6) Low dosage group: intraperitoneal injection of artemether at 40 ml/kg. The dosage was administered for 3 weeks, with 7 doses per week, a total of 21 doses.

[2] = tested on: K562 nude mice transplanted tumor; assay: Apoptosis of tumor cells from tumor-bearing animals (pre-trial); type: in vivo, Balb/c nude mice; settings: 21 doses
Procedure: as §1
The effect of the drug on the apoptosis of the tumor cell: from the result of pre-trial (table 3), it appears that the apoptosis ratio in control group is higher than that in the treated group. In fact, this is because the tutor of control group grows more rapidly, has a larger volume, and thus a more significant necrosis. […] However, cells which are not inhibited by the drug form a tumor mass that are not different much from the tumor mass in control group. Therefore, in a mechanism study, tumor cells in vivo should not be used, and an in vitro test is preferred.

[3] = mouse, in vivo
Procedure: as §2, §3, §4, §5, §6

SMILES: CO[C@H]1O[C@@H]2O[C@@]3(C)CC[C@H]4[C@H](C)CC[C@@H]([C@H]1C)[C@@]24OO3 [artemether]
- tumor sizes ([1]; experiment 1, High dosage group: artemether 100 ml/kg intraperitoneal, 15 doses in 3 weeks, 1 week after inoculation): 55.6±11.4 mm3
- tumor sizes ([1]; experiment 1, High dosage group: artemether 100 ml/kg intraperitoneal, 15 doses in 3 weeks, 2 weeks after inoculation): 72.9±70.8 mm3
- tumor sizes ([1]; experiment 1, High dosage group: artemether 100 ml/kg intraperitoneal, 15 doses in 3 weeks, 3 weeks after inoculation): 307.9±223.2 mm3
- tumor sizes ([1]; experiment 1, High dosage group: artemether 100 ml/kg intraperitoneal, 15 doses in 3 weeks, 4 weeks after inoculation): 489.2±199.9 mm3
- tumor mass ([1]; experiment 1, High dosage group: artemether 100 ml/kg intraperitoneal, 15 doses, 4 weeks after inoculation): 340.0 ± 237.6 mg
- tumor sizes ([1]; experiment 1, Low dosage group: artemether 40 ml/kg intraperitoneal, 15 doses in 3 weeks, 1 week after inoculation): 42.0±9.0 mm3
- tumor sizes ([1]; experiment 1, Low dosage group: artemether 40 ml/kg intraperitoneal, 15 doses in 3 weeks, 2 weeks after inoculation): 148.4±75.6 mm3
- tumor sizes ([1]; experiment 1, Low dosage group: artemether 40 ml/kg intraperitoneal, 15 doses in 3 weeks, 3 weeks after inoculation): 432.6±332.5 mm3
- tumor sizes ([1]; experiment 1, Low dosage group: artemether 40 ml/kg intraperitoneal, 15 doses in 3 weeks, 4 weeks after inoculation): 1127.7±142.8 mm3
- tumor mass ([1]; experiment 1, Low dosage group: artemether 40 ml/kg intraperitoneal, 15 doses, 4 weeks after inoculation): 1135.0 ± 457.2 mg
- tumor sizes ([1]; experiment 1, Middle dosage group: artemether 60 ml/kg intraperitoneal, 15 doses in 3 weeks, 1 week after inoculation): 51.3±4.5 mm3
- tumor sizes ([1]; experiment 1, Middle dosage group: artemether 60 ml/kg intraperitoneal, 15 doses in 3 weeks, 2 weeks after inoculation): 127.5±22.3 mm3
- tumor sizes ([1]; experiment 1, Middle dosage group: artemether 60 ml/kg intraperitoneal, 15 doses in 3 weeks, 3 weeks after inoculation): 376.7±135.8 mm3
- tumor sizes ([1]; experiment 1, Middle dosage group: artemether 60 ml/kg intraperitoneal, 15 doses in 3 weeks, 4 weeks after inoculation): 1035.6±248.5 mm3
- tumor mass ([1]; experiment 1, Middle dosage group: artemether 60 ml/kg intraperitoneal, 15 doses, 4 weeks after inoculation): 736.7 ± 247.6 mg
- tumor sizes ([1]; experiment 2, High dosage group: artemether 100 ml/kg intraperitoneal, 15 doses in 3 weeks, 1 week after inoculation): 33.9±14.4 mm3
- tumor sizes ([1]; experiment 2, High dosage group: artemether 100 ml/kg intraperitoneal, 15 doses in 3 weeks, 2 weeks after inoculation): 75.5±27.2 mm3
- tumor sizes ([1]; experiment 2, High dosage group: artemether 100 ml/kg intraperitoneal, 15 doses in 3 weeks, 3 weeks after inoculation): 137.1±101.6 mm3
- tumor sizes ([1]; experiment 2, High dosage group: artemether 100 ml/kg intraperitoneal, 15 doses in 3 weeks, 4 weeks after inoculation): 291.7±191.5 mm3
- tumor mass ([1]; experiment 2, High dosage group: artemether 100 ml/kg intraperitoneal, 15 doses, 4 weeks after inoculation): 230 ± 1153.4 mg
- tumor sizes ([1]; experiment 2, Low dosage group: artemether 40 ml/kg intraperitoneal, 21 doses in 3 weeks, 1 week after inoculation): 26.7±5.9 mm3
- tumor sizes ([1]; experiment 2, Low dosage group: artemether 40 ml/kg intraperitoneal, 21 doses in 3 weeks, 2 weeks after inoculation): 203.7±127.3 mm3
- tumor sizes ([1]; experiment 2, Low dosage group: artemether 40 ml/kg intraperitoneal, 21 doses in 3 weeks, 3 weeks after inoculation): 297.4±86.6 mm3
- tumor sizes ([1]; experiment 2, Low dosage group: artemether 40 ml/kg intraperitoneal, 21 doses in 3 weeks, 4 weeks after inoculation): 729.2±272.8 mm3
- tumor mass ([1]; experiment 2, Low dosage group: artemether 40 ml/kg intraperitoneal, 21 doses, 4 weeks after inoculation): 645 ± 314.7 mg
- tumor sizes ([1]; experiment 2, Middle dosage group: artemether 60 ml/kg intraperitoneal, 21 doses in 3 weeks, 1 week after inoculation): 22.7±7.4 mm3
- tumor sizes ([1]; experiment 2, Middle dosage group: artemether 60 ml/kg intraperitoneal, 21 doses in 3 weeks, 2 weeks after inoculation): 118.4±129.0 mm3
- tumor sizes ([1]; experiment 2, Middle dosage group: artemether 60 ml/kg intraperitoneal, 21 doses in 3 weeks, 3 weeks after inoculation): 201.2±98.9 mm3
- tumor sizes ([1]; experiment 2, Middle dosage group: artemether 60 ml/kg intraperitoneal, 21 doses in 3 weeks, 4 weeks after inoculation): 746.6±393.7 mm3
- tumor mass ([1]; experiment 2, Middle dosage group: artemether 60 ml/kg intraperitoneal, 21 doses, 4 weeks after inoculation): 630 ± 418.9 mg
- inhibition ratio ([1]; of tumor mass, experiment 1, Low dosage group: artemether 40 ml/kg intraperitoneal, 15 doses, 4 weeks after inoculation, listed as artemether lyophilized powder for injection): no significant inhibition
- inhibition ratio ([1]; of tumor mass, experiment 1, Middle dosage group: artemether 60 ml/kg intraperitoneal, 15 doses, 4 weeks after inoculation, listed as artemether lyophilized powder for injection): 31%
- inhibition ratio ([1]; of tumor mass, experiment 2, Low dosage group: artemether 40 ml/kg intraperitoneal, 21 doses, 4 weeks after inoculation, listed as artemether lyophilized powder for injection): 55%
- inhibition ratio ([1]; of tumor mass, experiment 2, Middle dosage group: artemether 60 ml/kg intraperitoneal, 21 doses, 4 weeks after inoculation, listed as artemether lyophilized powder for injection): 56%
- inhibition ratio ([1]; of tumor mass, pre-trial, Low dosage group: artemether 50 ml/kg intraperitoneal, 21 doses, 4 weeks after administration): 41.1%
- inhibition ratio ([1]; of tumor mass, pre-trial, Middle dosage group: artemether 100 ml/kg intraperitoneal, 21 doses, 4 weeks after administration): 64.9%
- inhibition ratio ([1]; of tumor volume, pre-trial, Low dosage group: artemether 50 ml/kg intraperitoneal, 21 doses, 3 weeks after administration): 43.6%
- inhibition ratio ([1]; of tumor volume, pre-trial, Low dosage group: artemether 50 ml/kg intraperitoneal, 21 doses, 4 weeks after administration): 44.6%
- inhibition ratio ([1]; of tumor volume, pre-trial, Middle dosage group: artemether 100 ml/kg intraperitoneal, 21 doses, 3 weeks after administration): 70.3%
- inhibition ratio ([1]; of tumor volume, pre-trial, Middle dosage group: artemether 100 ml/kg intraperitoneal, 21 doses, 4 weeks after administration): 69.1%
- tumor volume ([1]; pre-trial, High dosage group: artemether 150 ml/kg intraperitoneal, 21 doses in 3 weeks, 1 week after administration): 55.3 mm3
- tumor volume ([1]; pre-trial, High dosage group: artemether 150 ml/kg intraperitoneal, 21 doses in 3 weeks, 2 weeks after administration): 136.8 mm3
- tumor volume ([1]; pre-trial, High dosage group: artemether 150 ml/kg intraperitoneal, 21 doses in 3 weeks, 3 weeks after administration): 454.1 mm3
- tumor volume ([1]; pre-trial, High dosage group: artemether 150 ml/kg intraperitoneal, 21 doses in 3 weeks, 4 weeks after administration): 663.1 mm3
- tumor mass ([1]; pre-trial, High dosage group: artemether 150 ml/kg intraperitoneal, 21 doses, 4 weeks after administration): 590 mg
- tumor volume ([1]; pre-trial, Low dosage group: artemether 50 ml/kg intraperitoneal, 21 doses in 3 weeks, 1 week after administration): 174.9±74.7 mm3
- tumor volume ([1]; pre-trial, Low dosage group: artemether 50 ml/kg intraperitoneal, 21 doses in 3 weeks, 2 weeks after administration): 535.5±253.42 mm3
- tumor volume ([1]; pre-trial, Low dosage group: artemether 50 ml/kg intraperitoneal, 21 doses in 3 weeks, 3 weeks after administration): 997.1±327.71 mm3
- tumor volume ([1]; pre-trial, Low dosage group: artemether 50 ml/kg intraperitoneal, 21 doses in 3 weeks, 4 weeks after administration): 1672.0 ± 331.0 mm3
- tumor mass ([1]; pre-trial, Low dosage group: artemether 50 ml/kg intraperitoneal, 21 doses, 4 weeks after administration): 1436 ± 281.3 mg
- tumor volume ([1]; pre-trial, Middle dosage group: artemether 100 ml/kg intraperitoneal, 21 doses in 3 weeks, 1 week after administration): 93.6±43.6 mm3
- tumor volume ([1]; pre-trial, Middle dosage group: artemether 100 ml/kg intraperitoneal, 21 doses in 3 weeks, 2 weeks after administration): 219.9 ± 110.83 mm3
- tumor volume ([1]; pre-trial, Middle dosage group: artemether 100 ml/kg intraperitoneal, 21 doses in 3 weeks, 3 weeks after administration): 524.6±265.57 mm3
- tumor volume ([1]; pre-trial, Middle dosage group: artemether 100 ml/kg intraperitoneal, 21 doses in 3 weeks, 4 weeks after administration): 931.8±307.9 mm3
- tumor mass ([1]; pre-trial, Middle dosage group: artemether 100 ml/kg intraperitoneal, 21 doses, 4 weeks after administration): 857 ± 574.4 mg
- apoptosis ratio ([2]; High dosage group: artemether 150 intraperitoneal): 2.63%
- apoptosis ratio ([2]; Low dosage group: artemether 50 intraperitoneal): 1.37±0.47%
- apoptosis ratio ([2]; Middle dosage group: artemether 100 intraperitoneal): 2.04 ±1.58%
- toxicity [3]: without toxicity
